ChEMBL document CHEMBL5055660, “In vitro activity of N-phenyl-1,10-phenanthroline-2-amines against tachyzoites and bradyzoites of Toxoplasma gondii” (Bioorg Med Chem, 2021)
Activity calls are given as the source filed them. The rule behind the calls is not given here.

How the values were obtained:
Toxoplasma gondii [1] = experiment: Anti-tachyzoite activity against RFP-expressing Toxoplasma gondii RH Type 1 infected in NHDF cells assessed as inhibition of parasite proliferation measured after 72 hrs by fluorescence plate reader; type: functional; conditions: RH Type 1, NHDF, read-out: ED50 (the source's name)
Toxoplasma gondii [2] = experiment: Anti-tachyzoite activity against RFP-expressing Toxoplasma gondii RH Type 1 infected in NHDF cells assessed as inhibition of parasite proliferation measured after 96 hrs by fluorescence plate reader; type: functional; conditions: RH Type 1, NHDF, read-out: ED50 (the source's name)
[3] = Cytotoxicity against NHDF cells assessed as reduction in cell viability measured after 96 hrs by MTS assay; type: cell-based; conditions: human
[4] = Selectivity index, ratio of CC50 for cytotoxicity against NHDF cells to ED50 for Anti-tachyzoite activity against RFP-expressing Toxoplasma gondii RH Type 1 infected in NHDF cells; type: toxicity, cell-based; conditions: human; read-out: Selectivity Index
Toxoplasma gondii [5] = experiment: (§1) Anti-tachyzoite activity against RFP-expressing Toxoplasma gondii RH Type 1 infected in NHDF cells assessed as inhibition of plaque formation at 1.25 uM incubated for 96 hrs followed by removal of medium containing compounds and subsequent addition of fresh medium without compounds and measured after 8 days by crystal violet staining based optical microscopic analysis; type: functional, organism-based
Toxoplasma gondii [6] = experiment: Anti-bradyzoite activity against Toxoplasma gondii ESG reporter strain infected in NHDF cells assessed as increase in BAG-positive vacuole number at 1.25 uM pretreated with PYR for 3 days followed by compound treatment and further incubated for 4 days; type: functional, organism-based; conditions: time 4.0 day
Toxoplasma gondii [7] = experiment: Induction of vacuole formation in Toxoplasma gondii ESG reporter strain infected in NHDF cells assessed as increase in BAG positive vacuole number pretreated with PYR for 3 days followed by compound treatment and further incubated for 4 days; type: functional, organism-based; conditions: time 4.0 day
Toxoplasma gondii [8] = experiment: Anti-bradyzoite activity against Toxoplasma gondii ESG reporter strain infected in NHDF cells assessed as induction of cyst formation measured after 5 days under alkaline condition by TEM analysis; type: functional, organism-based; conditions: time 5.0 day
Toxoplasma gondii [9] = experiment: Anti-bradyzoite activity against Toxoplasma gondii ESG reporter strain infected in NHDF cells assessed as morphological alteration at 1.25 uM measured after 5 days under alkaline condition by TEM analysis; type: functional, organism-based; conditions: time 5.0 day
Toxoplasma gondii [10] = experiment: as §1, with “0.625” for “1.25”; type: functional, organism-based
Toxoplasma gondii [11] = experiment: (§2) Anti-tachyzoite activity against RFP-expressing Toxoplasma gondii RH Type 1 infected in NHDF cells assessed as inhibition of plaque formation at 1.25 uM when host cells pretreated for 3 days followed by infection and removal of medium containing compounds and subsequent addition of fresh medium without compounds and measured after 7 days by crystal violet staining based optical microscopic analysis; type: functional, organism-based; conditions: time 3.0 day
Toxoplasma gondii [12] = experiment: Anti-bradyzoite activity against Toxoplasma gondii ESG reporter stain infected in NHDF cells assessed as parasitic infection at 1.25 uM measured after 60 days by optical microscopic analysis; type: functional, organism-based; conditions: time 60.0 day
Toxoplasma gondii [13] = experiment: as §1, with “as” for “as inhibition of”, “0.156” for “1.25”; type: functional, organism-based
Toxoplasma gondii [14] = experiment: Induction of cytoplasmic vacuolization in RFP-expressing Toxoplasma gondii RH Type 1 at 156 nM after 72 hrs by TEM analysis; type: functional, organism-based
Toxoplasma gondii [15] = experiment: Induction of cell death in RFP-expressing Toxoplasma gondii RH Type 1 assessed as DNA fragmentation at 156 nM after 72 hrs by immunoblotting analysis; type: functional, organism-based
Toxoplasma gondii [16] = experiment: Anti-bradyzoite activity against Toxoplasma gondii ESG reporter strain infected in NHDF cells assessed as increase in BAG-positive vacuole number at 0.625 uM pretreated with PYR for 3 days followed by compound treatment and further incubated for 4 days; type: functional, organism-based; conditions: time 4.0 day
Toxoplasma gondii [17] = experiment: Anti-bradyzoite activity against Toxoplasma gondii ESG reporter strain infected in NHDF cells assessed as morphological alteration at 0.625 uM measured after 5 days under alkaline condition by TEM analysis; type: functional, organism-based; conditions: time 5.0 day
Toxoplasma gondii [18] = experiment: as §1, with “0.312” for “1.25”; type: functional, organism-based
Toxoplasma gondii [19] = experiment: as §2, with “0.312” for “1.25”; type: functional, organism-based; conditions: time 3.0 day
Toxoplasma gondii [20] = experiment: Induction of nuclear fragmentation in RFP-expressing Toxoplasma gondii RH Type 1 at 156 nM after 72 hrs by TEM analysis; type: functional, organism-based; conditions: NHDF
Toxoplasma gondii [21] = experiment: Induction of mitochondria swelling in RFP-expressing Toxoplasma gondii RH Type 1 at 156 nM after 72 hrs by TEM analysis; type: functional, organism-based; conditions: NHDF
Toxoplasma gondii [22] = experiment: Anti-bradyzoite activity against Toxoplasma gondii ESG reporter stain infected in NHDF cells assessed as parasite proliferation at 0.325 uM measured after 30 days by optical microscopic analysis; type: functional, organism-based; conditions: time 30.0 day
Toxoplasma gondii [23] = experiment: Anti-bradyzoite activity against Toxoplasma gondii ESG reporter stain infected in NHDF cells assessed as parasitic infection at 0.625 uM measured after 60 days by optical microscopic analysis; type: functional, organism-based; conditions: time 60.0 day
Toxoplasma gondii [24] = experiment: Anti-bradyzoite activity against Toxoplasma gondii ESG reporter strain infected in NHDF cells assessed as cell lysis measured after 21 days; type: functional, organism-based; conditions: time 21.0 day
Toxoplasma gondii [25] = experiment: as §1, with “viable cells recovery causing host cell lysis” for “inhibition of plaque formation”, “5” for “1.25”, “analysis relative to control” for “analysis”; type: functional
Toxoplasma gondii [26] = experiment: as §1, with “as” for “as inhibition of”, “0.625” for “1.25”; type: functional, organism-based
Toxoplasma gondii [27] = experiment: as §1, with “destruction” for “inhibition”, “host cells” for “plaque formation”; type: functional, organism-based
Toxoplasma gondii [28] = experiment: as §1, with “destruction” for “inhibition”, “host cells” for “plaque formation”, “1” for “1.25”; type: functional, organism-based
Toxoplasma gondii [29] = experiment: as §1, with “as” for “as inhibition of”, “2” for “1.25”; type: functional, organism-based
Toxoplasma gondii [30] = experiment: as §1, with “as” for “as inhibition of”, “4” for “1.25”; type: functional, organism-based
Toxoplasma gondii [31] = experiment: Induction of stage conversion in Toxoplasma gondii ESG reporter strain at 1 uM; type: functional, organism-based
Toxoplasma gondii [32] = experiment: Induction of stage conversion in Toxoplasma gondii ESG reporter strain at 2 uM; type: functional, organism-based
Toxoplasma gondii [33] = experiment: Induction of stage conversion in Toxoplasma gondii ESG reporter strain at 4 uM; type: functional, organism-based
Toxoplasma gondii [34] = experiment: Anti-bradyzoite activity against Toxoplasma gondii ESG reporter strain infected in NHDF cells assessed as increase in BAG-positive vacuole number at 2 uM pretreated with PYR for 3 days followed by compound treatment and further incubated for 4 days; type: functional, organism-based; conditions: time 4.0 day
Toxoplasma gondii [35] = experiment: Anti-bradyzoite activity against Toxoplasma gondii ESG reporter strain infected in NHDF cells assessed as cell lysis at 2 uM measured after 21 days; type: functional, organism-based; conditions: time 21.0 day
Toxoplasma gondii [36] = experiment: Anti-bradyzoite activity against Toxoplasma gondii ESG reporter strain infected in NHDF cells assessed as induced cyst formation at 2 uM measured after 5 days under alkaline condition by TEM analysis; type: functional, organism-based; conditions: time 5.0 day
Toxoplasma gondii [37] = experiment: Anti-bradyzoite activity against Toxoplasma gondii ESG reporter stain infected in NHDF cells assessed as viable cells recovery causing host cell lysis at 2 uM measured after 15 days by optical microscopic analysis; type: functional, organism-based; conditions: time 15.0 day
Toxoplasma gondii [38] = experiment: Anti-bradyzoite activity against Toxoplasma gondii ESG reporter stain infected in NHDF cells assessed as parasite proliferation at 4 uM measured after 30 days by optical microscopic analysis; type: functional, organism-based; conditions: time 30.0 day
Toxoplasma gondii [39] = experiment: Induction of morphological changes in Toxoplasma gondii ESG reporter strain at 10 uM; type: functional, organism-based
Toxoplasma gondii [40] = experiment: as §1, with “10” for “1.25”; type: functional, organism-based
Toxoplasma gondii [41] = experiment: Anti-bradyzoite activity against Toxoplasma gondii ESG reporter stain infected in NHDF cells assessed as viable cells recovery causing host cell lysis at 1 uM measured after 15 days by optical microscopic analysis; type: functional, organism-based; conditions: time 15.0 day
Toxoplasma gondii [42] = experiment: Anti-bradyzoite activity against Toxoplasma gondii ESG reporter stain infected in NHDF cells assessed as parasite proliferation at 10 uM measured after 30 days by optical microscopic analysis; type: functional, organism-based; conditions: time 30.0 day
Toxoplasma gondii [43] = experiment: as §1, with “destruction” for “inhibition”, “host cells” for “plaque formation”, “2.5” for “1.25”; type: functional, organism-based
Toxoplasma gondii [44] = experiment: as §1, with “destruction” for “inhibition”, “host cells” for “plaque formation”, “5” for “1.25”; type: functional, organism-based
Toxoplasma gondii [45] = experiment: Anti-bradyzoite activity against Toxoplasma gondii ESG reporter stain infected in NHDF cells assessed as viable cells recovery causing host cell lysis at 0.625 uM measured after 15 days by optical microscopic analysis; type: functional, organism-based; conditions: time 15.0 day

Row | Compound | EC50 (Toxoplasma gondii [1]) [µM] | EC50 (Toxoplasma gondii [2]) [µM] | CC50 at 96 h [3] [µM] | selectivity ratio [4] | Activity (Toxoplasma gondii [5]) | Activity (Toxoplasma gondii [6]) | Activity (Toxoplasma gondii [7]) | Activity (Toxoplasma gondii [12]) | further results
1 | c1ccc(Nc2ccc3ccc4cccnc4c3n2)cc1 | 0.53 | 0.67 | 34.6 | 73 | Active | – | – | – | –
2 | Fc1cccc(Nc2ccc3ccc4cccnc4c3n2)c1 | 0.27 | 0.33 | 24.9 | 75 | Active | Active | Active | inactive | Activity (Toxoplasma gondii [8]): Active; Activity (Toxoplasma gondii [9]): Active; Activity (Toxoplasma gondii [10]): Active; Activity (Toxoplasma gondii [11]): Active
3 | c1ccc2c(Nc3ccc4ccc5cccnc5c4n3)cccc2c1 | 0.24 | 0.15 | 11.4 | 114 | – | – | Active | – | Activity (Toxoplasma gondii [13]): Active; Activity (Toxoplasma gondii [14]): Active; Activity (Toxoplasma gondii [15]): Active; Activity (Toxoplasma gondii [16]): Active; Activity (Toxoplasma gondii [8]): Active; Activity (Toxoplasma gondii [17]): Active; Activity (Toxoplasma gondii [18]): Active; Activity (Toxoplasma gondii [19]): Active; Activity (Toxoplasma gondii [20]): Active; Activity (Toxoplasma gondii [21]): Active; Activity (Toxoplasma gondii [22]): Active; Activity (Toxoplasma gondii [23]): inactive
4 | N#Cc1ccc(Nc2ccc3ccc4cccnc4c3n2)cc1 | 1.06 | 1.66 | 31 | 21 | – | – | – | – | Activity (Toxoplasma gondii [24]): Active; Activity (Toxoplasma gondii [25]): 100%
5 | COc1cccc(Nc2ccc3ccc4cccnc4c3n2)c1 | 0.25 | 0.34 | 37.7 | 111 | Active | Active | – | inactive | Activity (Toxoplasma gondii [26]): Active; Activity (Toxoplasma gondii [11]): Active
6 | Fc1ccc(Nc2ccc3ccc4cccnc4c3n2)cc1 | 0.25 | 0.31 | 26.9 | 96 | – | Active | – | inactive | Activity (Toxoplasma gondii [27]): Active; Activity (Toxoplasma gondii [26]): Active
7 | CCc1nc(N)nc(N)c1-c1ccc(Cl)cc1 | – | – | – | – | – | – | – | – | Activity (Toxoplasma gondii [28]): Active; Activity (Toxoplasma gondii [29]): Active; Activity (Toxoplasma gondii [30]): Active; Activity (Toxoplasma gondii [31]): Active; Activity (Toxoplasma gondii [32]): Active; Activity (Toxoplasma gondii [33]): Active; Activity (Toxoplasma gondii [34]): Active; Activity (Toxoplasma gondii [35]): Active; Activity (Toxoplasma gondii [36]): Active; Activity (Toxoplasma gondii [37]): Active; Activity (Toxoplasma gondii [38]): Active
8 | O=C1C(O)=C([C@H]2CC[C@H](c3ccc(Cl)cc3)CC2)C(=O)c2ccccc21 | – | – | – | – | – | – | – | – | Activity (Toxoplasma gondii [28]): Active; Activity (Toxoplasma gondii [31]): Active; Activity (Toxoplasma gondii [39]): Active; Activity (Toxoplasma gondii [24]): Active; Activity (Toxoplasma gondii [40]): Active; Activity (Toxoplasma gondii [41]): Active; Activity (Toxoplasma gondii [42]): Active
9 | c1cnc2c(c1)ccc1cccnc12 [PHENANTHROLINE] | 2.01 | 2.28 | 70.2 | 31 | – | – | – | – | Activity (Toxoplasma gondii [35]): Active
10 | N#Cc1cccc(Nc2ccc3ccc4cccnc4c3n2)c1 | 0.24 | 0.31 | 30.5 | 98 | – | – | Active | – | Activity (Toxoplasma gondii [43]): Active; Activity (Toxoplasma gondii [44]): Active; Activity (Toxoplasma gondii [27]): Active; Activity (Toxoplasma gondii [24]): Active
11 | COc1ccc(Nc2ccc3ccc4cccnc4c3n2)cc1 | 0.31 | 0.29 | 18.4 | 63 | Active | Active | – | inactive | Activity (Toxoplasma gondii [26]): Active; Activity (Toxoplasma gondii [45]): Active
12 | Clc1cccc(Nc2ccc3ccc4cccnc4c3n2)c1 | 0.36 | 0.58 | 24.9 | 42 | Active | Active | Active | inactive | Activity (Toxoplasma gondii [8]): Active; Activity (Toxoplasma gondii [9]): Active; Activity (Toxoplasma gondii [10]): Active; Activity (Toxoplasma gondii [11]): Active; Activity (Toxoplasma gondii [45]): Active
